Measurements published in ChEMBL document CHEMBL5512641, “Evaluation of novel 2-(quinoline-2-ylthio)acetamide derivatives linked to diphenyl-imidazole as α-glucosidase inhibitors: Insights from in silico, in vitro, and in vivo studies on their anti-diabetic properties” (Eur J Med Chem, 2024).
Blank lines part the entries; values can stand above or below the compound they belong to. Calls of active or inactive are those of the source. The rule behind the calls is not given here.

What was measured:
[1] = target: T1, Alpha-glucosidase (Saccharomyces cerevisiae S288c, UniProt P53341+P38158+P07265); assay: Inhibition of Saccharomyces cerevisiae alpha-glucosidase using p-nitrophenyl-alpha-D-glucopyranoside as substrate measured after 20 mins by spectrophotometer; assay type: protein assay
[2] = target: T1, Alpha-glucosidase; assay: Uncompetitive inhibition of Saccharomyces cerevisiae alpha-glucosidase using varying concentrations of p-nitrophenyl-alpha-D-glucopyranoside as substrate by Lineweaver-Burk plot analysis; assay type: protein assay
[3] = target: T1, Alpha-glucosidase; assay: Competitive inhibition of Saccharomyces cerevisiae alpha-glucosidase using varying concentrations of p-nitrophenyl-alpha-D-glucopyranoside as substrate by Lineweaver-Burk plot analysis; assay type: protein assay
[4] = target: T1, Alpha-glucosidase; assay: Inhibition of Saccharomyces cerevisiae alpha-glucosidase using p-nitrophenyl-alpha-D-glucopyranoside as substrate preincubated for 10 mins followed by substrate addition and measured after 20 mins by spectrophotometer; assay type: protein assay
[5] = system: Rattus norvegicus; assay: Antidiabetic activity in 16 hrs fasted high fat diet/streptozotocin induced diabetic Wistar albino rat model assessed as reduction in blood glucose level at 50 mg/kg, po pretreated for 30 mins followed by glucose administration and measured after 30 to 120 mins by oral glucose tolerance test; assay type: functional, organism-based; settings: time […]
[6] = system: Rattus norvegicus; assay: Antidiabetic activity in high fat diet/streptozotocin induced diabetic Wistar albino rat model assessed as reduction in blood glucose level at 50 mg/kg, po administered once daily and measured on day 28 using overnight fasted rat blood by automatic blood glucose meter; assay type: functional; settings: time 28 day
[7] = system: Rattus norvegicus; assay: Antidiabetic activity in high fat diet/streptozotocin induced diabetic Wistar albino rat model assessed as increase in body weight at 50 mg/kg, po administered once daily and measured for 28 days; assay type: functional, organism-based; settings: time 28.0 day
[8] = system: Rattus norvegicus; assay: Antidiabetic activity in high fat diet/streptozotocin induced diabetic rat Wistar albino model assessed as reduction in blood glucose level at 50 mg/kg, po administered once daily and measured on day 14 using overnight fasted rat blood by automatic blood glucose meter; assay type: functional, organism-based; settings: time 14.0 day
[9] = target: Alpha-glucosidase (Saccharomyces cerevisiae S288c) (UniProt P53341+P38158+P07265); assay: Potency index, ratio of acarbose IC50 to test compound IC50 for inhibition of Saccharomyces cerevisiae alpha-glucosidase using p-nitrophenyl-alpha-D-glucopyranoside as substrate measured after 20 mins by spectrophotometer; assay type: protein assay
[10] = system: Rattus norvegicus; assay: Antidiabetic activity in 16 hrs fasted high fat diet/streptozotocin induced diabetic Wistar albino rat model assessed as reduction in blood glucose level at 25 to 50 mg/kg, po pretreated for 30 mins followed by glucose administration and measured after 30 mins by oral glucose tolerance test; assay type: functional, organism-based; settings: dose 25-50 mg/kg, time 60.0 min
[11] = Acute toxicity in male Wistar albino rat assessed as animal death at 250 to 1000 mg/kg, po administered via gastric gavage and measured daily for 72 hrs to 2 weeks; assay type: organism-based; settings: in vivo, dose lower 250 mg/kg, time lower 3 day, dose upper 1000 mg/kg, time upper 14 day
[12] = system: Rattus norvegicus; assay: Antidiabetic activity in 16 hrs fasted high fat diet/streptozotocin induced diabetic Wistar albino rat model assessed as reduction in blood glucose level at 10 to 50 mg/kg, po pretreated for 30 mins followed by glucose administration and measured after 60 to 120 mins by oral glucose tolerance test; assay type: functional, organism-based; settings: dose 10-50 mg/kg, time 30-150 min
[13] = system: Rattus norvegicus; assay: Antidiabetic activity in high fat diet/streptozotocin induced diabetic Wistar albino rat model assessed as reduction in blood glucose level at 25 to 50 mg/kg, po administered once daily and measured on day 14 using overnight fasted rat blood by automatic blood glucose meter; assay type: functional, organism-based; settings: dose 25-50 mg/kg, time 14.0 day
[14] = Acute toxicity in male Wistar albino rat assessed as symptoms of toxicity at 250 to 1000 mg/kg, po administered via gastric gavage and measured daily for 72 hrs; assay type: organism-based; settings: in vivo, dose 250-1000 mg/kg
[15] = system: Rattus norvegicus; assay: Antidiabetic activity in high fat diet/streptozotocin induced diabetic Wistar albino rat model assessed as reduction in blood glucose level at 50 mg/kg, po administered once daily and measured on day 21 using overnight fasted rat blood by automatic blood glucose meter; assay type: functional, organism-based; settings: time 21.0 day
[16] = Acute toxicity in male Wistar albino rat assessed as tremors at 250 to 1000 mg/kg, po administered via gastric gavage and measured daily for 2 weeks; assay type: organism-based; settings: in vivo, 336 h, dose 250-1000 mg/kg
[17] = system: Rattus norvegicus; assay: Antidiabetic activity in high fat diet/streptozotocin induced diabetic Wistar albino rat model assessed as increase in body weight at 10 to 50 mg/kg, po administered once daily and measured for 28 days; assay type: functional, organism-based; settings: dose 10-50 mg/kg, time 28.0 day
[18] = system: Rattus norvegicus; assay: Antidiabetic activity in high fat diet/streptozotocin induced diabetic Wistar albino rat model assessed as reduction in blood glucose level at 10 mg/kg, po administered once daily and measured on day 28 using overnight fasted rat blood by automatic blood glucose meter; assay type: functional; settings: time 28 day
[19] = Acute toxicity in male Wistar albino rat assessed as symptoms of diarrhea at 250 to 1000 mg/kg, po administered via gastric gavage and measured daily for 2 weeks; assay type: organism-based; settings: in vivo, 336 h, dose 250-1000 mg/kg
[20] = Acute toxicity in male Wistar albino rat assessed as salivation at 250 to 1000 mg/kg, po administered via gastric gavage and measured daily for 2 weeks; assay type: organism-based; settings: in vivo, 336 h, dose 250-1000 mg/kg
[21] = system: Rattus norvegicus; assay: Antidiabetic activity in high fat diet/streptozotocin induced diabetic Wistar albino rat model assessed as reduction in blood glucose level at 10 to 50 mg/kg, po administered once daily and measured immediately by automatic blood glucose meter; assay type: functional, organism-based; settings: dose 10-50 mg/kg
[22] = system: Rattus norvegicus; assay: Antidiabetic activity in 16 hrs fasted high fat diet/streptozotocin induced diabetic Wistar albino rat model assessed as reduction in blood glucose level at 10 to 50 mg/kg, po pretreated for 30 mins followed by glucose administration and measured immediately by oral glucose tolerance test; assay type: functional, organism-based; settings: dose 10-50 mg/kg
[23] = system: Rattus norvegicus; assay: Antidiabetic activity in high fat diet/streptozotocin induced diabetic Wistar albino rat model assessed as improvement in pancreatic islet architecture at 10 to 50 mg/kg, po administered once daily for 28 days by H and E staining based microscopic analysis; assay type: functional, organism-based; settings: dose 10-50 mg/kg, time 28.0 day
[24] = Acute toxicity in male Wistar albino rat assessed as convulsions at 250 to 1000 mg/kg, po administered via gastric gavage and measured daily for 2 weeks; assay type: organism-based; settings: in vivo, 336 h, dose 250-1000 mg/kg
[25] = system: Rattus norvegicus; assay: Antidiabetic activity in high fat diet/streptozotocin induced diabetic Wistar albino rat model assessed as reduction in blood glucose level at 20 mg/kg, po administered once daily and measured on day 28 using overnight fasted rat blood by automatic blood glucose meter; assay type: functional; settings: time 28 day
[26] = system: Rattus norvegicus; assay: Antidiabetic activity in high fat diet/streptozotocin induced diabetic Wistar albino rat model assessed as reduction in blood glucose level at 10 to 50 mg/kg, po administered once daily and measured on day 7 using overnight fasted rat blood by automatic blood glucose meter; assay type: functional, organism-based; settings: dose 10-50 mg/kg, time 7.0 day
[27] = Acute toxicity in male Wistar albino rat assessed as effect on sleeping at 250 to 1000 mg/kg, po administered via gastric gavage and measured daily for 2 weeks; assay type: organism-based; settings: in vivo, 336 h, dose 250-1000 mg/kg
[28] = Acute toxicity in male Wistar albino rat assessed as lethargy at 250 to 1000 mg/kg, po administered via gastric gavage and measured daily for 2 weeks; assay type: organism-based; settings: in vivo, 336 h, dose 250-1000 mg/kg

- IC50 [1]: 1950 nM
Structure (SMILES): O=C(CSc1nc2ccccc2cc1-c1nc(-c2ccccc2)c(-c2ccccc2)[nH]1)Nc1ccccc1Cl

- IC50 [1]: 960 nM
- Ki [2]: 770 nM
Structure (SMILES): CCc1ccc(NC(=O)CSc2nc3ccccc3cc2-c2nc(-c3ccccc3)c(-c3ccccc3)[nH]2)cc1

- Ki [3]: 1400 nM
- IC50 [1]: 1260 nM
Structure (SMILES): O=C(CSc1nc2ccccc2cc1-c1nc(-c2ccccc2)c(-c2ccccc2)[nH]1)NCc1ccc(F)cc1

- IC50 [1]: 1500 nM
Structure (SMILES): Cc1ccccc1NC(=O)CSc1nc2ccccc2cc1-c1nc(-c2ccccc2)c(-c2ccccc2)[nH]1

- IC50 [4]: 85600 nM
Structure (SMILES): Clc1ccccc1Cn1cc(CSc2nc(-c3ccccc3)c(-c3ccccc3)[nH]2)nn1

Structure (SMILES): C[C@H]1O[C@H](O[C@H]2[C@H](O)[C@@H](O)[C@@H](O[C@H]3[C@H](O)[C@@H](O)C(O)O[C@@H]3CO)O[C@@H]2CO)[C@H](O)[C@@H](O)[C@@H]1N[C@H]1C=C(CO)[C@@H](O)[C@H](O)[C@H]1O (stereo partly drawn) [ACARBOSE]
- Activity [5]: Active
- Activity [6]: 115 mg/dL
- Activity [7]: Active
- Activity [8]: Active

- IC50 [1]: 1530 nM
Structure (SMILES): Cc1cc([N+](=O)[O-])ccc1NC(=O)CSc1nc2ccccc2cc1-c1nc(-c2ccccc2)c(-c2ccccc2)[nH]1

- IC50 [1]: 1250 nM
- Ki [2]: 1000 nM
Structure (SMILES): Cc1cccc(C)c1NC(=O)CSc1nc2ccccc2cc1-c1nc(-c2ccccc2)c(-c2ccccc2)[nH]1

- IC50 [1]: 1020 nM
- Ki [2]: 990 nM
Structure (SMILES): Cc1c(NC(=O)CSc2nc3ccccc3cc2-c2nc(-c3ccccc3)c(-c3ccccc3)[nH]2)cccc1[N+](=O)[O-]

- Ki [3]: 2200 nM
- IC50 [1]: 1220 nM
Structure (SMILES): O=C(CSc1nc2ccccc2cc1-c1nc(-c2ccccc2)c(-c2ccccc2)[nH]1)Nc1ccc2ccccc2c1

- IC50 [1]: 2050 nM
Structure (SMILES): Cc1cccc(NC(=O)CSc2nc3ccccc3cc2-c2nc(-c3ccccc3)c(-c3ccccc3)[nH]2)c1C

- IC50 [1]: 1800 nM
Structure (SMILES): O=C(CSc1nc2ccccc2cc1-c1nc(-c2ccccc2)c(-c2ccccc2)[nH]1)Nc1ccc(Cl)cc1

- Ratio IC50 [9]: 375
- IC50 [1]: 2100 nM
Structure (SMILES): O=C(CSc1nc2ccccc2cc1-c1nc(-c2ccccc2)c(-c2ccccc2)[nH]1)Nc1ccccc1

- IC50 [4]: 14000 nM
Structure (SMILES): Cc1cccc(C)c1NC(=O)CSc1nc2ccccc2cc1/C=N/NC(=O)c1ccccc1

- IC50 [1]: 1850 nM
Structure (SMILES): O=C(CSc1nc2ccccc2cc1-c1nc(-c2ccccc2)c(-c2ccccc2)[nH]1)Nc1cccc(Cl)c1

- IC50 [1]: 2020 nM
Structure (SMILES): O=C(CSc1nc2ccccc2cc1-c1nc(-c2ccccc2)c(-c2ccccc2)[nH]1)Nc1ccccc1F

- IC50 [4]: 80000 nM
Structure (SMILES): COc1ccc2nc3cc(Cl)ccc3c(SCC(=O)Nc3ccc(C)cc3)c2c1

- IC50 [1]: 1770 nM
Structure (SMILES): Cc1ccc(NC(=O)CSc2nc3ccccc3cc2-c2nc(-c3ccccc3)c(-c3ccccc3)[nH]2)cc1

- IC50 [1]: 1580 nM
Structure (SMILES): O=C(CSc1nc2ccccc2cc1-c1nc(-c2ccccc2)c(-c2ccccc2)[nH]1)Nc1cccc(Cl)c1Cl

- IC50 [1]: 1480 nM
Structure (SMILES): Cc1ccc(CNC(=O)CSc2nc3ccccc3cc2-c2nc(-c3ccccc3)c(-c3ccccc3)[nH]2)cc1

Structure (SMILES): O=C(CSc1nc2ccccc2cc1-c1nc(-c2ccccc2)c(-c2ccccc2)[nH]1)Nc1ccc(F)cc1
- Activity [10]: Active
- Activity [11]: Non-Toxic
- Activity [12]: Active
- Activity [13]: Active
- Activity [14]: Non-Toxic
- Ki [3]: 150 nM
- Activity [15]: Active
- Activity [6]: 127.83 mg/dL
- Activity [16]: Non-Toxic
- Activity [17]: Active
- Activity [18]: 242 mg/dL
- Activity [19]: Non-Toxic
- Activity [20]: Non-Toxic
- Activity [21]: inactive
- IC50 [1]: 180 nM
- Activity [22]: inactive
- Activity [23]: Active
- Activity [24]: Non-Toxic
- Activity [25]: 207.83 mg/dL
- Activity [26]: inactive
- Activity [27]: Non-Toxic
- Activity [28]: Non-Toxic

- IC50 [1]: 1980 nM
Structure (SMILES): O=C(CSc1nc2ccccc2cc1-c1nc(-c2ccccc2)c(-c2ccccc2)[nH]1)Nc1ccc(Br)cc1

- IC50 [1]: 1790 nM
Structure (SMILES): O=C(CSc1nc2ccccc2cc1-c1nc(-c2ccccc2)c(-c2ccccc2)[nH]1)NCc1ccccc1
